This note sets out measurements from patent US20240116910A1, “Heterocycles as WIP1 Inhibitors” (PMV Pharmaceuticals, Inc., priority 2022, published 2024).

In assay [1] the target is recombinant His-tag Wip1(2-420) protein (amino acids #2-420) (Homo sapiens (Human), UniProt O15297). Nature of the assay: Wip1(2-420) phosphatase enzyme FDP assay. The class given is biochemical. Conditions: fluorescein diphosphate (FDP) substrate, RT 2 hours, fluorescence Ex485/Em535; read-out: WIP1 (Truncated 2-420) FDP Assay: IC50.
Chain of recombinant His-tag Wip1(2-420) protein (amino acids #2-420) (O15297 2-420): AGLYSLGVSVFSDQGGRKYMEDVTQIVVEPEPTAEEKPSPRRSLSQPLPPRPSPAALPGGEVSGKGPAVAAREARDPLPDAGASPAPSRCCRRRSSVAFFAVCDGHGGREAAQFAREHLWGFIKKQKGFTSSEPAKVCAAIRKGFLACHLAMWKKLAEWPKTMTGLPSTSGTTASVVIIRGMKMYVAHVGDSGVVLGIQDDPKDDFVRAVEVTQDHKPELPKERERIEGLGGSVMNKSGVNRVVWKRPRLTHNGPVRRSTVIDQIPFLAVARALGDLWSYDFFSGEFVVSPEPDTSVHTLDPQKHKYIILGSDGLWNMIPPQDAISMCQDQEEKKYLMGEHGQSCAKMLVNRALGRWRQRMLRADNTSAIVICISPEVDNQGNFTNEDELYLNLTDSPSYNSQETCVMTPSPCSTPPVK
Assay [2] has as its target recombinant His-tag Wip1 full length protein (amino acids #1-605) (Homo sapiens (Human), UniProt O15297). Briefly: Wip1 full length phosphatase enzyme FDP assay. The class given is biochemical. The settings on record: fluorescein diphosphate (FDP) substrate, RT 2 hours, fluorescence Ex485/Em535. The procedure: The Human Wip1 (2-420, aa 2-420) or Wip1 full length (aa 1-605) DNA sequence was codon optimized and synthesized by Genscript for insect cell expression. The open reading frame of Wip1(2-420) with a N-terminal-His6 affinity tag followed by a TEV cleavage site was subcloned sites into the pFastBac1 expression vector. The recombinant bacmid DNA was transfected in Sf9 insect cells for baculovirus production. After 72 hours infection, the Sf9 cells were harvested by centrifugation and resuspended in lysis buffer containing 50 mM Tris/HCl, pH 8.0, 500 mM NaCl, 20% glycerol, Benzonase 0.5% CHAPS and Roche cOmplete™ EDTA free protease inhibitors. Cells were disrupted with microfluidizer and the debris was removed by centrifugation at 185,000 g for 1 hour. The supernatant was subjected to HisTrap FF for affinity purification. Proteins were eluted with a linear gradient of 0-500 mM imidazole in HisTrap buffer containing 50 mM Tris/HCl, pH 8.0, 500 mM NaCl and 20% glycerol, 0.05% CHAPS. The eluted protein was dialyzed against dialysis buffer (20 mM MES, 100 mM NaCl, 20% glycerol, 0.5 mM TCEP, 0.05% CHAPS) followed purification via HiTrap SP HP column. The protein was eluted with a gradient of 100 mM-2 M NaCl in dialysis buffer. His6-[…] was finally concentrated and loaded onto a size-exclusion column (NiLoad 16/600 Superdex 200 pg, GE Healthcare) pre-equilibrated with 50 mM MOPS (pH 7.5), 200 mM NaCl, 20% glycerol, 1 mM TCEP, 0.05% CHAPS and 0.1 mM EGTA. The peak fractions containing purified Nis6-Wip1(2-420) were pooled and concentrated to 1.0 mg/mL and flash frozen at −80° C.
Wip1 Length and Wip1(2-420) Phosphatase Enzyme FDP Assays.
Test compounds (252 mM stock in DMSO) were diluted 3 folds in series in DMSO and 1.2 μl per well were added into 384-well polypropylene black plates (Nunc). Twelve μl per well of Assay Buffer (100 mM NaCl, 50 mM MOPS, pH 7.5, 0.8 mM CHAPS, 0.1 mM EGTA, 30 mM MgCl2, 0.3 mM TCEP, 0.2 mg/mL BSA) was added followed by […] per well of 50.4 nM recombinant His-tag Wip1 full length protein (amino acids #1-605) or recombinant His-tag Wip1(2-420) protein (amino acids #2-420) in Assay Buffer and the plate was incubated at RT (22° C.) for 5 min. Ten mM of fluorescein diphosphate (FDP) in DMSO was diluted to […] in Assay Buffer and […] per well was added to the plate and incubated at RT (22° C.) for 2 hours. […] per well of 64.1 mM EDTA in water were added to stop the enzyme reaction. The plate was centrifuged at 1,200 rpm (Eppendorf 5810R Plate centrifuge) for 1 minute and fluorescence intensity (Ex485/Em535) was measured on Perkin Elmer Victor Reader. EC50 values were calculated using either Prism (GraphPad) or ActivityBase software (IDBS), The IC50 results are provided in Table M.

Usually IC50 stands for the concentration at which inhibition is half-maximal.

Chain of recombinant His-tag Wip1 full length protein (amino acids #1-605) (O15297 whole entry, the tested form may be a part): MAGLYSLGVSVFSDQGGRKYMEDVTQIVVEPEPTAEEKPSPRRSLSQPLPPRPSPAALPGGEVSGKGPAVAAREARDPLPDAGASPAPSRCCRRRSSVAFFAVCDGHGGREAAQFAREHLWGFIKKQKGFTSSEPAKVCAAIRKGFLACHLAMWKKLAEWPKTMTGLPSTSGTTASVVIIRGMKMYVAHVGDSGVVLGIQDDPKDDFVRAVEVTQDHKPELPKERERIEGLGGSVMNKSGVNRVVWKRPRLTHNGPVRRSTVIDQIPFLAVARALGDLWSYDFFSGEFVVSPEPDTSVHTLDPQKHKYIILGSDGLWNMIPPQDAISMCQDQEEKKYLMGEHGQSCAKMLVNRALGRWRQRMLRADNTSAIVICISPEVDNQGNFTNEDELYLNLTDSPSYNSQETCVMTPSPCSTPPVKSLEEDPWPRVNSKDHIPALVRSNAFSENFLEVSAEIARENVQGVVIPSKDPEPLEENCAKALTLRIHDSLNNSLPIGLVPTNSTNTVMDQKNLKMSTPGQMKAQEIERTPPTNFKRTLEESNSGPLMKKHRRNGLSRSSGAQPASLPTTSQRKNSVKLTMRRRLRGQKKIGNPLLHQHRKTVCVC

Turning to `Cc1ncc(Cl)cc1N[C@@H](C)c1ccc(C(=O)N[C@@H](CC2CCCC2)C(=O)Nc2ccc(F)cc2)s1` [Compound 18, (2S)-2-({5-[(1S)-1-[(5-chloro-2-methylpyridin-3-yl)amino]ethyl]thiophen-2-yl}formamido)-3-cyclopentyl-N-(4-fluorophenyl)propanamide], the IC50 in assay [1] was 7 nM; in assay [2] it was 8 nM.

With `COC(=O)C12CC(NC(=O)[C@H](CC3CCCC3)NC(=O)c3ccc([C@H](C)Nc4cc(Cl)cnc4C)s3)(C1)C2` [Compound 19, methyl 3-[(2S)-2-({5-[(1S)-1-[(5-chloro-2-methylpyridin-3-yl)amino]ethyl]thiophen-2-yl}formamido)-3-cyclopentylpropanamido]bicyclo[1.1.1]pentane-1-carboxylate], the values for the 50% inhibitory concentration (IC50) in assay [1] and in assay [2] were 11 nM and 13 nM, respectively.

On to `Cc1ncc(Cl)cc1N[C@@H](C)c1ccc(C(=O)N[C@@H](CC2CCCC2)C(=O)NC23CC(O)(C2)C3)s1` [Compound 20, (2S)-2-({5-[(1S)-1-[(5-chloro-2-methylpyridin-3-yl)amino]ethyl]thiophen-2-yl}formamido)-3-cyclopentyl-N-{3-hydroxybicyclo[1.1.1]pentan-1-yl}propanamide], for which the results for the half-maximal inhibitory concentration (IC50) in assay [1] and in assay [2] were 8 nM and 10 nM, respectively.

As for `Cc1ncc(Cl)cc1N[C@H](C)c1ccc(C(=O)N[C@@H](CC2CCCC2)C(=O)N[C@H]2CC2(F)F)s1` [Compound 21, (2S)-2-({5-[(1R)-1-[(5-chloro-2-methylpyridin-3-yl)amino]ethyl]thiophen-2-yl}formamido)-3-cyclopentyl-N-[(1S)-2,2-difluorocyclopropyl]propanamide], the IC50 in assay [1] was 109 nM; in assay [2] it was 139 nM.

In the case of `Cc1ncc(Cl)cc1N[C@@H](C)c1ccc(C(=O)N[C@@H](CC2CCCC2)C(=O)N[C@H]2CC2(F)F)s1` [Compound 23, (2S)-2-({5-[(1S)-1-[(5-chloro-2-methylpyridin-3-yl)amino]ethyl]thiophen-2-yl}formamido)-3-cyclopentyl-N-[(1S)-2,2-difluorocyclopropyl]propanamide], the values for the IC50 in assay [1] and in assay [2] were 5 nM and 8 nM, respectively.

Consider `Cc1ncc(Cl)cc1N[C@@H](C)c1ccc(C(=O)N[C@@H](CC2CCCC2)C(=O)N[C@@H]2CC2(F)F)s1` [Compound 24, (2S)-2-({5-[(1S)-1-[(5-chloro-2-methylpyridin-3-yl)amino]ethyl]thiophen-2-yl}formamido)-3-cyclopentyl-N-[(1R)-2,2-difluorocyclopropyl]propanamide], for which the half-maximal inhibitory concentration (IC50) in assay [1] and in assay [2] was 8 nM in each case.

As for `Cc1ncc(Cl)cc1N[C@@H](C)c1ccc(C(=O)N[C@@H](CC2CCCC2)C(=O)NC2CC(F)(F)C2)s1` [Compound 25, (2S)-2-({5-[(1S)-1-[(5-chloro-2-methylpyridin-3-yl)amino]ethyl]thiophen-2-yl}formamido)-3-cyclopentyl-N-(3,3-difluorocyclobutyl)propanamide], the values for the half-inhibitory concentration (IC50) in assay [1] and in assay [2] were 5 nM and 8 nM, respectively.

Regarding `Cc1ncc(Cl)cc1N[C@@H](C)c1ccc(C(=O)N[C@@H](CC2CCCC2)C(=O)NC2CCC(F)(F)C2)s1` (stereo partly drawn) [Compound 26, (2S)-2-({5-[(1S)-1-[(5-chloro-2-methylpyridin-3-yl)amino]ethyl]thiophen-2-yl}formamido)-3-cyclopentyl-N-(3,3-difluorocyclopentyl)propanamide], the 50% inhibitory concentration (IC50) in assay [1] was 7 nM; in assay [2], 9 nM.

In the case of `Cc1ncc(Cl)cc1N[C@@H](C)c1ccc(C(=O)N[C@@H](CC2CCCC2)C(=O)NC2COC2)s1` [Compound 27, (2S)-2-({5-[(1S)-1-[(5-chloro-2-methylpyridin-3-yl)amino]ethyl]thiophen-2-yl}formamido)-3-cyclopentyl-N-(oxetan-3-yl)propanamide], the 50% inhibitory concentration (IC50) stood at 6 nM in assay [1] and 10 nM in assay [2].
